Assay results published in a compilation of properties of binary mixtures (doi:10.1016/j.jct.2017.07.022).

Assay: xn = mol fraction of the nth substance listed
Settings: 100 kPa

CC[n+]1ccccc1.N#C[N-]C#N + CC(C)O
viscosity [mPa·s]
Settings | x2 = 0 | x2 = 0.1055 | x2 = 0.1999 | x2 = 0.2997 | x2 = 0.4023 | x2 = 0.499 | x2 = 0.5998 | x2 = 0.7006 | x2 = 0.8007 | x2 = 0.8997
288.15 K | 25.9 | 21.3 | 18.3 | – | 12.3 | 10 | 8.04 | 6.15 | 4.78 | 3.75
293.15 K | 22.1 | – | 15.6 | 12.9 | 10.7 | 8.68 | 7.02 | 5.39 | 4.18 | 3.28
298.15 K | 18.9 | 15.6 | 13.4 | 11.2 | – | 7.61 | 6.19 | 4.77 | 3.7 | 2.89
303.15 K | 16.4 | 13.5 | 11.6 | 9.83 | 8.17 | 6.72 | – | 4.24 | 3.29 | 2.55
308.15 K | 14.3 | 11.7 | 10.1 | 8.69 | 7.24 | 6 | 4.91 | – | 2.95 | –
313.15 K | – | 10.3 | 8.9 | 7.72 | 6.47 | 5.38 | – | – | – | 2.03
318.15 K | 11 | 9.08 | 7.9 | 6.92 | 5.82 | 4.85 | – | – | 2.41 | 1.83

CC[n+]1ccccc1.N#C[N-]C#N + CCCO
viscosity [mPa·s]
Settings | x2 = 0 | x2 = 0.1095 | x2 = 0.1947 | x2 = 0.3011 | x2 = 0.4029 | x2 = 0.5008 | x2 = 0.6003 | x2 = 0.702 | x2 = 0.8012 | x2 = 0.9
288.15 K | 25.9 | – | – | 15.2 | 12 | 9.7 | 7.73 | 5.99 | – | 3.48
293.15 K | – | 17.7 | 15.3 | – | 10.4 | 8.45 | 6.78 | 5.28 | – | 3.09
298.15 K | 18.9 | 15.3 | 13.1 | 11.7 | 9.11 | – | 6 | 4.7 | 3.61 | –
303.15 K | 16.4 | 13.2 | 11.3 | 10.3 | – | 6.6 | 5.34 | – | 3.24 | 2.48
308.15 K | 14.3 | 11.4 | – | 9.11 | 7.14 | – | 4.79 | 3.78 | – | –
313.15 K | 12.5 | 9.9 | – | 8.13 | 6.39 | – | 4.33 | 3.42 | 2.65 | 2.03
318.15 K | – | 8.74 | 7.85 | 7.35 | 5.76 | – | 3.93 | – | 2.42 | –

CC[n+]1ccccc1.N#C[N-]C#N + CCO
viscosity [mPa·s]
Settings | x2 = 0 | x2 = 0.1008 | x2 = 0.1974 | x2 = 0.3008 | x2 = 0.3994 | x2 = 0.5058 | x2 = 0.5994 | x2 = 0.6996 | x2 = 0.7999 | x2 = 0.9011
288.15 K | – | – | 16.8 | 13.4 | 10.5 | 7.99 | 6.13 | 4.66 | 3.05 | 2.24
293.15 K | 22.1 | – | 14.4 | 11.7 | 9.23 | 7.07 | 5.46 | 4.22 | 2.78 | 2.02
298.15 K | – | 15.4 | – | – | 8.19 | 6.31 | 4.91 | 3.85 | – | 1.86
303.15 K | 16.4 | 13.3 | 10.9 | 9.23 | 7.34 | 5.69 | 4.47 | 3.49 | 2.31 | –
308.15 K | 14.3 | 11.5 | 9.58 | 8.28 | 6.61 | – | 4.08 | 3.19 | 2.12 | 1.55
313.15 K | 12.5 | 10.1 | 8.51 | 7.45 | – | – | – | – | 1.94 | 1.42
318.15 K | 11 | – | 7.62 | 6.74 | – | 4.31 | 3.44 | 2.68 | 1.79 | 1.31

CC(C)O + CC[n+]1ccccc1.N#C[N-]C#N
x1 = 1
Settings | viscosity [mPa·s]
288.15 K | 2.83
293.15 K | 2.42
298.15 K | 2.08
303.15 K | 1.8
308.15 K | 1.56
313.15 K | 1.33
318.15 K | 1.17

CCCO + CC[n+]1ccccc1.N#C[N-]C#N
x1 = 1
Settings | viscosity [mPa·s]
293.15 K | 2.22
298.15 K | 1.97
303.15 K | 1.75
308.15 K | 1.56
313.15 K | 1.36
318.15 K | 1.23

CCO + CC[n+]1ccccc1.N#C[N-]C#N
x1 = 1
Settings | viscosity [mPa·s]
293.15 K | 1.17
298.15 K | 1.07
303.15 K | 0.975
308.15 K | 0.89
313.15 K | 0.815
318.15 K | 0.747
